Source: ChEMBL document CHEMBL5726715 (2018)

Each molecule was assayed against T1, 3-phosphoinositide-dependent protein kinase 1 (Homo sapiens, UniProt O15530) (assay: Kinase Assay: A PDK1 kinase assay was performed as follows. […] PDK1 protein was divided into two fractions, one of which was subsequently dephosphorylated. To generate dephosphorylated PDK1, the PDK1 was reacted with GST-tagged lambda-phosphatase in vitro. GST was subsequently cleaved proteolytically for both phosphorylated and dephosphorylated PDK1. Protein preparations were run on glutathione Sepharose columns to remove GST and GST-tagged lambda-phosphatase, if present. […] Enzyme activity was determined in a coupled PDK1/AKT/FAM-crosstide assay using either phosphorylated or unphosphorylated PDK1 and phosphorylation of FAM-crosstide was determined by standard IMAP protocol (Molecular Devices). For inhibition studies, compounds were titrated 3-fold in DMSO and diluted 40-fold into assay buffer (10 mM Tris HCl pH7.2; 10 mM MgCl2; 0.01% Triton X-100; 1 mM DTT) containing PDK1, AKT2, and FAM-crosstide. […] To detect assay product, the kinase reaction was combined with Progressive Binding Solution (1:600 Progressive Binding Reagent, 50% Buffer A, 50% Buffer B, Molecular Devices) in a 1:3 ratio.).
T1 sequence (O15530 whole entry): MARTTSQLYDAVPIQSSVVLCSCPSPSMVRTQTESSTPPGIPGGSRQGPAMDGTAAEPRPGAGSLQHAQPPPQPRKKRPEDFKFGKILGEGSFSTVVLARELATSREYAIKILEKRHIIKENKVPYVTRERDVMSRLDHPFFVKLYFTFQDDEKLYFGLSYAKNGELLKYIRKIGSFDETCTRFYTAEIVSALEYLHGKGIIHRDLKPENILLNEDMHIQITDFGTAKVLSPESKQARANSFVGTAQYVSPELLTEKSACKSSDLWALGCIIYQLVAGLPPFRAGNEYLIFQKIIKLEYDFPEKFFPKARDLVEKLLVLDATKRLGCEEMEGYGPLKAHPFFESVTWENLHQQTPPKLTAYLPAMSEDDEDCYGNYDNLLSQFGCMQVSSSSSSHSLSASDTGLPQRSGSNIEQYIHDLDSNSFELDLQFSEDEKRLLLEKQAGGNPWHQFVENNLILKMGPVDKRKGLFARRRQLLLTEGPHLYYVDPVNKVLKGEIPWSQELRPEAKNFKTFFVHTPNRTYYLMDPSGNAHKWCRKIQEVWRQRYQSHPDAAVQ

SMILES | IC50 [nM]
C[C@H](COc1ccc2[nH]c(=O)[nH]c2c1)NC(=O)c1cccn(Cc2cc(F)c(F)c(F)c2)c1=O | < 500
O=C(NCc1cncc(-c2c[nH]c3ncccc23)c1)c1cccn(Cc2ccc(F)c(F)c2)c1=O | < 500
O=C(NC/C=C/c1ccc2[nH]c(=O)[nH]c2c1)c1cccn(Cc2cc(F)c(F)c(F)c2)c1=O | < 500
O=C(NCc1cccc(-c2c[nH]c3ncccc23)c1)c1cccn(Cc2ccc(C(F)(F)F)cc2)c1=O | < 500
Nc1ncnc2ccc(-c3ccc(CNC(=O)c4cccn(Cc5ccc(F)c(F)c5)c4=O)s3)cc12 | < 500
O=C(NCc1ccc(OCCN2CCOCC2)c(-c2c[nH]c3ncccc23)c1)c1cccn(Cc2ccc(F)c(F)c2)c1=O | < 500
NC(=O)COc1cc(CNC(=O)c2cccn(Cc3ccc(F)c(F)c3)c2=O)cc(-c2c[nH]c3ncccc23)c1 | < 500
O=C(NCc1cccc(-c2c[nH]c3nccc(F)c23)c1)c1cccn(Cc2ccc(F)c(F)c2)c1=O | < 500
C=C[C@H](COc1ccc2[nH]c(=O)[nH]c2c1)NC(=O)c1cccn(Cc2cc(F)c(F)c(F)c2)c1=O | < 500
NC(=O)c1cc(-c2cccc(CNC(=O)c3cccn(Cc4ccc(F)c(F)c4)c3=O)c2)c[nH]1 | < 500
O=C(NCc1noc(-c2c[nH]c3ncccc23)n1)c1cc(Cl)cn(Cc2ccc(C(F)(F)F)cc2)c1=O | < 500
Cc1[nH]c2ncccc2c1-c1cccc(CNC(=O)c2cccn(Cc3ccc(F)c(F)c3)c2=O)c1 | < 500
O=C(N[C@@H](COc1ccc2[nH]c(=O)[nH]c2c1)C1CC1)c1cccn(Cc2cc(F)c(F)c(F)c2)c1=O | < 500
O=C(Nc1ccnc2ccc(-c3c[nH]c4ncccc34)cc12)c1cccn(Cc2ccc(F)c(F)c2)c1=O | < 500
O=C(NCc1cc(OC2CCCC2)cc(-c2c[nH]c3ncccc23)c1)c1cccn(Cc2ccc(F)c(F)c2)c1=O | < 500
Cn1nc(NC(=O)c2cccn(Cc3ccc(F)c(F)c3)c2=O)c2cc(-c3c[nH]c4ncccc34)ccc21 | < 500
CN(C)C(=O)COc1cc(CNC(=O)c2cccn(Cc3ccc(F)c(F)c3)c2=O)cc(-c2c[nH]c3ncccc23)c1 | < 500
NC(=O)[C@H](COc1ccc2[nH]c(=O)[nH]c2c1)NC(=O)c1cccn(Cc2cc(F)c(F)c(F)c2)c1=O | < 500
O=C(O)Cn1nc(NC(=O)c2cccn(Cc3ccc(F)c(F)c3)c2=O)c2cc(-c3c[nH]c4ncccc34)ccc21 | < 500
Nc1ncnc2ccc(-c3cccc(CNC(=O)c4cccn(Cc5ccc(F)c(F)c5)c4=O)c3)cc12 | < 500
O=C(NCc1cc(-c2c[nH]c3ncccc23)ccc1O)c1cccn(Cc2ccc(F)c(F)c2)c1=O | < 500
COc1ccc(CNC(=O)c2cccn(Cc3ccc(F)c(F)c3)c2=O)cc1-c1c[nH]c2ncccc12 | < 500
CN1CCC(Oc2cc(CNC(=O)c3cccn(Cc4ccc(F)c(F)c4)c3=O)cc(-c3c[nH]c4ncccc34)c2)CC1 | < 500
O=C(O)c1cc(-c2c[nH]c3ncccc23)cc(CNC(=O)c2cccn(Cc3ccc(F)c(F)c3)c2=O)n1 | < 500
O=C(NCc1ccc(O)c(-c2c[nH]c3ncccc23)c1)c1cccn(Cc2ccc(F)c(F)c2)c1=O | < 500
CC(=O)NC[C@@H](NC(=O)c1cccn(Cc2ccc(F)c(F)c2)c1=O)c1nc(-c2c[nH]c3ncccc23)cs1 | < 500

SMILES | IC50 [nM]
CC(C)(C)OC(=O)N1CCC(Oc2cc(CNC(=O)c3cccn(Cc4ccc(F)c(F)c4)c3=O)cc(-c3c[nH]c4ncccc34)c2)CC1 | < 500
O=C(NCc1cc(OC2CCCCC2)cc(-c2c[nH]c3ncccc23)c1)c1cccn(Cc2ccc(F)c(F)c2)c1=O | < 500
COc1cnc2[nH]cc(-c3cccc(CNC(=O)c4cccn(Cc5ccc(F)c(F)c5)c4=O)c3)c2c1 | < 500
O=C(NC1CC1)c1cnc2[nH]cc(-c3cccc(CNC(=O)c4cccn(Cc5ccc(F)c(F)c5)c4=O)c3)c2c1 | < 500
O=C(NCc1cc(-c2c[nH]c3ncccc23)cc[n+]1[O-])c1cccn(Cc2ccc(F)c(F)c2)c1=O | < 500
O=C(NCc1cccc(-c2c[nH]c3ncc(O)cc23)c1)c1cccn(Cc2ccc(F)c(F)c2)c1=O | < 500
CCn1nc(NC(=O)c2cccn(Cc3ccc(F)c(F)c3)c2=O)c2cc(-c3c[nH]c4ncccc34)ccc21 | < 500
O=C(NCc1cc(OC2CCNCC2)cc(-c2c[nH]c3ncccc23)c1)c1cccn(Cc2ccc(F)c(F)c2)c1=O | < 500
O=C(NCc1cc(OS(=O)(=O)c2ccccc2)cc(-c2c[nH]c3ncccc23)c1)c1cccn(Cc2ccc(F)c(F)c2)c1=O | < 500
O=C(NCc1cccc(-c2c[nH]c(C(=O)N3CCOCC3)c2)c1)c1cccn(Cc2ccc(F)c(F)c2)c1=O | < 500
COc1ccc(-c2c[nH]c3ncccc23)cc1CNC(=O)c1cccn(Cc2ccc(F)c(F)c2)c1=O | < 500
O=C(NCCOc1ccc2[nH]c(=O)[nH]c2c1F)c1cccn(Cc2ccc(F)c(F)c2)c1=O | < 500
O=C(NCc1cccc(-c2c[nH]c3ncc(C(=O)N4CCOCC4)cc23)c1)c1cccn(Cc2ccc(F)c(F)c2)c1=O | < 500
COc1cnc2[nH]cc(-c3ccc(CNC(=O)c4cccn(Cc5ccc(F)c(F)c5)c4=O)s3)c2c1 | < 500
CS(=O)(=O)N1CCC(Oc2cc(CNC(=O)c3cccn(Cc4ccc(F)c(F)c4)c3=O)cc(-c3c[nH]c4ncccc34)c2)CC1 | < 500
CNC(=O)c1cc(-c2cccc(CNC(=O)c3cccn(Cc4ccc(F)c(F)c4)c3=O)c2)c[nH]1 | < 500
O=C(NCc1cccc(-c2c[nH]c3ncc(C(=O)N4CCNCC4)cc23)c1)c1cccn(Cc2ccc(F)c(F)c2)c1=O | < 500
O=C(NCc1noc(-c2c[nH]c3ncccc23)n1)c1cccn(Cc2cc(F)c(F)c(F)c2)c1=O | < 500
O=C(N[C@@H](COc1ccc2[nH]c(=O)[nH]c2c1)c1ccccc1Cl)c1cccn(Cc2cc(F)c(F)c(F)c2)c1=O | < 500
O=C(NCc1coc(-c2c[nH]c3ncccc23)n1)c1cccn(Cc2ccc(F)c(F)c2)c1=O | < 500
O=C(NCc1noc(-c2c[nH]c3ncccc23)n1)c1cccn(Cc2ccc(F)c(F)c2)c1=O | < 500
O=C(NCc1cccc(-c2c[nH]c3ncc(C(F)(F)F)cc23)c1)c1cccn(Cc2ccc(F)c(F)c2)c1=O | < 500
CC(C)Oc1cc(CNC(=O)c2cccn(Cc3cc(F)c(F)c(F)c3)c2=O)cc(-c2c[nH]c3ncccc23)c1 | < 500
O=C(NCc1cc(OCC(O)CO)cc(-c2c[nH]c3ncccc23)c1)c1cccn(Cc2ccc(F)c(F)c2)c1=O (configuration not stated) | < 500
NC(=O)c1cc(-c2c[nH]c3ncccc23)cc(CNC(=O)c2cccn(Cc3ccc(F)c(F)c3)c2=O)n1 | < 500
CC(c1ccc(C(F)(F)F)cc1)n1cccc(C(=O)NCc2noc(-c3c[nH]c4ncccc34)n2)c1=O (configuration not stated) | < 500
